Experimental data as given in paper PMC7736581, “Activation of the IRE1 RNase through remodeling of the kinase front pocket by ATP-competitive ligands” (Nature Communications, 2020).

Experiments:
Experiment in all cases: biochemical
Design in all cases: Invitrogen kinase panel: Z'Lyte activity (ATP at Km) or LanthaScreen competitive ATP-site binding, percent inhibition
[1] = target: T1, PKC_beta1 (Homo sapiens, UniProt P05771)
T1 construct: gene PRKCB; isoform beta1

[2] = target: Fgr (Homo sapiens, UniProt P09769)
Fgr, sequence (P09769 whole entry): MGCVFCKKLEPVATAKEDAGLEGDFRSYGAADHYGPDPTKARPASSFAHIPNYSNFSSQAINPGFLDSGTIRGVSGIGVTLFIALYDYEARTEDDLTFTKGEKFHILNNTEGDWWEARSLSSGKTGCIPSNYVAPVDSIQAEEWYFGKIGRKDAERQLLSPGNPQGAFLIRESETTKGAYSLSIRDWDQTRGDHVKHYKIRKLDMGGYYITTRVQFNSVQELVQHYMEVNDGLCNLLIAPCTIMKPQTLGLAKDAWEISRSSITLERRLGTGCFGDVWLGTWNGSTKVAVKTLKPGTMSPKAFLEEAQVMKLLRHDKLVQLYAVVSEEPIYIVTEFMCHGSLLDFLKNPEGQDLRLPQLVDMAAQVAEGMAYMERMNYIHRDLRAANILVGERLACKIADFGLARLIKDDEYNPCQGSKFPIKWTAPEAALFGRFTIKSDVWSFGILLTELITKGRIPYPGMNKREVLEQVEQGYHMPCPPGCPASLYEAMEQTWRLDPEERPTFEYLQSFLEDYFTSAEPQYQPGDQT

[3] = target: T2, IRAK4 (Homo sapiens, UniProt Q9NWZ3)
T2 sequence (Q9NWZ3 1-460): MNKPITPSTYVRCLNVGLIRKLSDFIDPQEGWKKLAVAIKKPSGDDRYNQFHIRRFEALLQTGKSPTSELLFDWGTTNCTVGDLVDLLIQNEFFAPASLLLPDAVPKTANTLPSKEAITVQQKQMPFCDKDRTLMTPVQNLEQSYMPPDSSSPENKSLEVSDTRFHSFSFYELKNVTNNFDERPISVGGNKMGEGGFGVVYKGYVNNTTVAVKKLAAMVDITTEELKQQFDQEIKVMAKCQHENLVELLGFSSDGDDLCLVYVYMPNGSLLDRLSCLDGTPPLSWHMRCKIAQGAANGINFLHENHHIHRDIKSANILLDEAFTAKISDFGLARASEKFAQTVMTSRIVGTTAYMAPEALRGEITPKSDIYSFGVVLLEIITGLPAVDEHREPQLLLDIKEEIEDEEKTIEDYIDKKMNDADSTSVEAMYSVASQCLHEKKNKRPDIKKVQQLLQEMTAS

[4] = target: T3, PhK_gamma1 (Homo sapiens, UniProt Q16816)
T3 construct: gene PHKG1
T3 sequence (Q16816 whole entry): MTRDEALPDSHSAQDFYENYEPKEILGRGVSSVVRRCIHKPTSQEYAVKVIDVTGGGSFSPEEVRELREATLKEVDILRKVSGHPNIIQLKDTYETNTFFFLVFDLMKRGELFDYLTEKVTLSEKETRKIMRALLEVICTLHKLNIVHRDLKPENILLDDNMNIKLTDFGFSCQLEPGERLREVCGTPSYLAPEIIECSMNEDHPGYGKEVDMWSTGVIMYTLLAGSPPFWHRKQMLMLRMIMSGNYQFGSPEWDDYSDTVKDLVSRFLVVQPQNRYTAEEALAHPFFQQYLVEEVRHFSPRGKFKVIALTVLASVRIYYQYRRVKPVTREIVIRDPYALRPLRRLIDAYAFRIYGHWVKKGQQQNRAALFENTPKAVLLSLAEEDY

[5] = target: CDK2/cyclinA (Homo sapiens, UniProt P24941)
[6] = target: T4, GSK3_beta (Homo sapiens, UniProt P49841)
T4 construct: gene GSK3B
T4 sequence (P49841 whole entry): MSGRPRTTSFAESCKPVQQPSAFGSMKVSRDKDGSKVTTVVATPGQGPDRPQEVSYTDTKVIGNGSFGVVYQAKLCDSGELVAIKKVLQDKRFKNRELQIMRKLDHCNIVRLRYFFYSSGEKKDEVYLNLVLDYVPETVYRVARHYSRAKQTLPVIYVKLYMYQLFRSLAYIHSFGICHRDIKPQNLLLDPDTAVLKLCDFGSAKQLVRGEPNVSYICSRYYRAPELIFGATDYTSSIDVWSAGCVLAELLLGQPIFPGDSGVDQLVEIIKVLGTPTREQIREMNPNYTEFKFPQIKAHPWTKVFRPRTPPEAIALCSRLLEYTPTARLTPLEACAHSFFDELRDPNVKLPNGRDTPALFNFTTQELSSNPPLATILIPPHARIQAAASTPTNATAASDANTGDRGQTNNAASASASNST

[7] = target: Met (Homo sapiens, UniProt P08581)
Met, sequence (P08581 whole entry): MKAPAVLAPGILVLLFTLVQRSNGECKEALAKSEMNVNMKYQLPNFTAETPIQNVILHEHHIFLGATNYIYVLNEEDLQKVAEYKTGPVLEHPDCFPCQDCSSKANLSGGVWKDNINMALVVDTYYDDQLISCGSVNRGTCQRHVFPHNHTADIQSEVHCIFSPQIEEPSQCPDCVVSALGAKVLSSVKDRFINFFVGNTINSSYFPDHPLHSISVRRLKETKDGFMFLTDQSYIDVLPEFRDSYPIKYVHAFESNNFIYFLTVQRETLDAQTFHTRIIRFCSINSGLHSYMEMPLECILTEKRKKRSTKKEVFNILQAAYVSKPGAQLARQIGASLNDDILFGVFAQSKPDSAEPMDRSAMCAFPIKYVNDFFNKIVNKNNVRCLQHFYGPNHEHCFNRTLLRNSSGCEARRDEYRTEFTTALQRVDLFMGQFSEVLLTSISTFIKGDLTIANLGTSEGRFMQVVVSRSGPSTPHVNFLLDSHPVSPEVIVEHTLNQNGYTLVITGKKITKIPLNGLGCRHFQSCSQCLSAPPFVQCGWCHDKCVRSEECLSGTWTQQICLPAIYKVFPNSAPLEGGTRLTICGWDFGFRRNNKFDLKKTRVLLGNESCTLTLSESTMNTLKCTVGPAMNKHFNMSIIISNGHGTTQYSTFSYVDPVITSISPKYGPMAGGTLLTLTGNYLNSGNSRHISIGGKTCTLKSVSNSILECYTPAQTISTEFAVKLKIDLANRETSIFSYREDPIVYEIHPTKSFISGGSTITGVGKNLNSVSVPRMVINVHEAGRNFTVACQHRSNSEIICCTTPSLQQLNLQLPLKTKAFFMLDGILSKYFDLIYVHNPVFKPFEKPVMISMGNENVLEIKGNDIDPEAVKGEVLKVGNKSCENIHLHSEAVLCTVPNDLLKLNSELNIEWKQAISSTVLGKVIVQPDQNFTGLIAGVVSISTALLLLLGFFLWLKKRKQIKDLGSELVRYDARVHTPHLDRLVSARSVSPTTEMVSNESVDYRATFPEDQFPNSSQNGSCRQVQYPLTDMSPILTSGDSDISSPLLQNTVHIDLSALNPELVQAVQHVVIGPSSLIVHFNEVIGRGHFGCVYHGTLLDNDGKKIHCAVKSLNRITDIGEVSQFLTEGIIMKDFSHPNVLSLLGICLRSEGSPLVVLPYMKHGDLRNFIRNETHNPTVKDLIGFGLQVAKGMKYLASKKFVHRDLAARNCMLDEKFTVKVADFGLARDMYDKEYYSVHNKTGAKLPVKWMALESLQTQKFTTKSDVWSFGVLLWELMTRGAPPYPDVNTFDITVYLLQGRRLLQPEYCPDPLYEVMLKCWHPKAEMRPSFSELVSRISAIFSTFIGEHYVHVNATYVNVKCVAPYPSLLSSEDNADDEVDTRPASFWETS

[8] = target: T5, Aurora_A (Homo sapiens, UniProt O14965)
T5 construct: gene AURKA
T5 sequence (O14965 1-403): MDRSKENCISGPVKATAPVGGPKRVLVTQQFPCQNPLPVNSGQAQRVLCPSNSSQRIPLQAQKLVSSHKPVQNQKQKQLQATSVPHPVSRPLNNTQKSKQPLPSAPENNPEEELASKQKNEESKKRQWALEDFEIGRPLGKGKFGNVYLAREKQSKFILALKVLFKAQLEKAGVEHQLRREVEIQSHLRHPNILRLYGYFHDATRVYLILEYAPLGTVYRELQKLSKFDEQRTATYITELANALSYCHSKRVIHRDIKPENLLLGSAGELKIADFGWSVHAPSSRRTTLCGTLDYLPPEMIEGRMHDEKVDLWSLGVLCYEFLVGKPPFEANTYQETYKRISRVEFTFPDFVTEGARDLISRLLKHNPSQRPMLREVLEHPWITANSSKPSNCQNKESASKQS

[9] = target: T6, Abl (Homo sapiens, UniProt P00519)
T6 construct: gene ABL1
T6 sequence (P00519 whole entry): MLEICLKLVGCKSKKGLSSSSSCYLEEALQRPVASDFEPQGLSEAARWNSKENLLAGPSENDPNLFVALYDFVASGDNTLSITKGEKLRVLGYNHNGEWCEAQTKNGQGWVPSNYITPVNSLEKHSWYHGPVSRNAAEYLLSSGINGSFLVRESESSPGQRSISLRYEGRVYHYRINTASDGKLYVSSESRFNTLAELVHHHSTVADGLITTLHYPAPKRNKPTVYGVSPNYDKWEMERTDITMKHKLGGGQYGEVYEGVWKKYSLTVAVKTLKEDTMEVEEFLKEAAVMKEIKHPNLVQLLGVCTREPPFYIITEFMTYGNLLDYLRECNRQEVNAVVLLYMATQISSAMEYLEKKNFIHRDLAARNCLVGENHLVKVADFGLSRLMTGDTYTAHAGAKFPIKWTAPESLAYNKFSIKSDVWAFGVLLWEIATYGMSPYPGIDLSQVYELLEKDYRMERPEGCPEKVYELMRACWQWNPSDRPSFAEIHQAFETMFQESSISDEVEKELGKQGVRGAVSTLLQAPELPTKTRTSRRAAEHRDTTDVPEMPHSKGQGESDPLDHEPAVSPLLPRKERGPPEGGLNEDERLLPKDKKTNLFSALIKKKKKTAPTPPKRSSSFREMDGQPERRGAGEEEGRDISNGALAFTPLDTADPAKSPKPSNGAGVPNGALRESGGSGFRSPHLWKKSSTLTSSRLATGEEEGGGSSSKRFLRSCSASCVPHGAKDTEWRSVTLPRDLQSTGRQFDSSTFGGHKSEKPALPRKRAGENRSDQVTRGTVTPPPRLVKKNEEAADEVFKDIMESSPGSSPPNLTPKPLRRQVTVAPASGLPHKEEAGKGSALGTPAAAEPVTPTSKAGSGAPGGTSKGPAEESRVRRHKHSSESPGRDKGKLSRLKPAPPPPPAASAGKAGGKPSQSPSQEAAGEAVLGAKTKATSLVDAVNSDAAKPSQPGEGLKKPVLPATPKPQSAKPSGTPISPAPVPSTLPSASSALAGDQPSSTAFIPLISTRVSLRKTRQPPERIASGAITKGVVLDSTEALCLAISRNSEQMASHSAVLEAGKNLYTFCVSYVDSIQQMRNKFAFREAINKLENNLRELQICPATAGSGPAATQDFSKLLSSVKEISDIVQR

[10] = target: T7, MEK1 (Homo sapiens, UniProt Q02750)
T7 construct: gene MAP2K1

[11] = target: T8, RSK2 (Homo sapiens, UniProt P51812)
T8 construct: gene RPS6KA3

[12] = target: JAK1 (Homo sapiens, UniProt P23458)
JAK1, sequence (P23458 whole entry): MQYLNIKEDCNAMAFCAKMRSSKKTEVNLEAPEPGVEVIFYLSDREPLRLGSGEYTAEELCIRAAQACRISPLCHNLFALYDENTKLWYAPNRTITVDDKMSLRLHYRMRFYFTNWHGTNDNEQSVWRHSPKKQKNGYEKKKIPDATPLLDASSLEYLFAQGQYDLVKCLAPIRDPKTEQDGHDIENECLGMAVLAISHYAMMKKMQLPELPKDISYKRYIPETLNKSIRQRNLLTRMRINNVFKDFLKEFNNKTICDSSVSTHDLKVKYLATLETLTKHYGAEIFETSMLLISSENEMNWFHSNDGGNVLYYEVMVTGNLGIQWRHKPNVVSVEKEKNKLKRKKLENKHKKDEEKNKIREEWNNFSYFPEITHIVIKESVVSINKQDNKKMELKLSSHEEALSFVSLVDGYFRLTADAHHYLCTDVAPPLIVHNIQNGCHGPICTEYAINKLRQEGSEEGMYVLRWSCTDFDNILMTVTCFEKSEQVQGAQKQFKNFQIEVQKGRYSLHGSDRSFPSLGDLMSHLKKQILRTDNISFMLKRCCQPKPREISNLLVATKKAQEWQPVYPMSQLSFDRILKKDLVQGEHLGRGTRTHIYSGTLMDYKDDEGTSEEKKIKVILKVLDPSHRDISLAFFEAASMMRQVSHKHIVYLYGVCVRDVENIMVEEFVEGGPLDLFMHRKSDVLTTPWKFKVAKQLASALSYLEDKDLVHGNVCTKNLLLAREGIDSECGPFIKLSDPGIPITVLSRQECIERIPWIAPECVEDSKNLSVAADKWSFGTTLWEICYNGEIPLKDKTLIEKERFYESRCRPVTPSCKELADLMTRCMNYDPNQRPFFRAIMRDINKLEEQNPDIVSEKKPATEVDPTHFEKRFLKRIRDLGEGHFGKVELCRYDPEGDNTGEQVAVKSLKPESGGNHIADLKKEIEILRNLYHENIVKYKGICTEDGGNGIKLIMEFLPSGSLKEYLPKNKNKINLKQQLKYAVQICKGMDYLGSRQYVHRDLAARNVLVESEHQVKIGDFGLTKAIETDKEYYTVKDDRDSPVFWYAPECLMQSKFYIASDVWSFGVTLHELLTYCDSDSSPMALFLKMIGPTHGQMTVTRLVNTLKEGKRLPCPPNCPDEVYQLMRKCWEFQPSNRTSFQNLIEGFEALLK

Row | Compound | inhibition at 1 µM [1] | inhibition at 1 µM [2] | inhibition at 1 µM [3] | inhibition at 1 µM [4] | inhibition at 1 µM [5] | inhibition at 1 µM [6] | inhibition at 1 µM [7] | inhibition at 1 µM [8] | inhibition at 1 µM [9] | inhibition at 1 µM [10] | inhibition at 1 µM [11] | inhibition at 1 µM [12]
1 | CCOC(=O)Nc1cccc2c(Oc3ncccc3-c3ccnc(N[C@H]4CCCNC4)n3)c(C)ccc12 [G-1749] | 5.5% | 1.5% | 8% | 2% | 6.5% | 0.5% | 4% | -9.5% | -7.5% | 2% | 3.5% | -4%
2 | CC#CC(=O)Nc1cccc2c(Oc3ncccc3-c3ccnc(N[C@H]4CCCNC4)n3)c(C)ccc12 [G-7658] | 5.5% | 6% | -1% | 1% | 6% | 7.5% | 5% | -7% | -1.5% | 0.5% | 0% | 0.5%
3 | O=c1cc(-c2n[nH]c3ncc(-c4c(F)cccc4F)cc23)nc(N2CCC(O)CC2)[nH]1 [G-9807] | 66.7% | 77.1% | 96.3% | 92.2% | 100% | 99.1% | 88.8% | 92% | 94.4% | 95.4% | 98% | 68.7%
